# Results: patent EP2725073B1, “Antifouling coating composition” (Jotun A/S, priority 2012, dated 2014)
# Experiment: Determination of carbodiimide half-life by IR spectroscopy (reaction with acetic acid in xylene)
# Format: physicochemical
# Settings: for Half-life: time for 50% of the carbodiimide compound to react with acetic acid in xylene at 23±2°C, carbodiimide absorption at 2100-2200 cm^-1; for Remarks: observation during reaction with acetic acid in xylene at 23±2°C
# Experimental: In particular, the carbodiimides of the present invention have slower reactivity than those described in US2005/0255081A1. The reactivity of carbodiimide compounds can be expressed as the half-life, i.e. in this case the time it takes for 50% of the carbodiimide compound to react with the carboxylic acid.
# The carbodiimide compound preferably has relatively slow reactivity. Reactivity is measured by way of the half-life of the carbodiimide, which is defined as the time taken for 50% of the carbodiimide compound to react with a carboxylic acid.
# Solutions of the carbodiimide compounds and acetic acid in xylene are prepared. A carbodiimide solution and the acetic acid solution are mixed and the reaction between the carbodiimide compound and acetic acid at 23±2°C is monitored by following the carbodiimide absorption at 2100-2200 cm^-1 in an zinc selenide cell. The reaction is followed until approximately 50% of the carbodiimide compound has reacted.
SMILES,Half-life,Remarks
"Cc1ccc(N=C=Nc2ccc(C)cc2)cc1 [1,3-Di-p-tolylcarbodiimide]",2 h,–
"CC(C)c1cccc(C(C)C)c1N=C=Nc1c(C(C)C)cccc1C(C)C [Bis(2,6-diisopropylphenyl) carbodiimide]",30 h,–
"CC(C)N=C=NC(C)C [1,3-Diisopropylcarbodiimide]",0.75 h,Precipitation of urea products
"Cc1ccccc1N=C=Nc1ccccc1C [1,3-Di-o-methylphenylcarbodiimide]",3 h,–
"C(=NC1CCCCC1)=NC1CCCCC1 [1,3-Dicyclohexylcarbodiimide]",0.25 h,Precipitation of urea products
"C[Si](C)(C)N=C=N[Si](C)(C)C [1,3-bis(trimethylsilyl)carbodiimide]",–,No reaction
